Measurements published in PMC3901259, “Characterisation of the Metabolites of 1,8-Cineole Transferred into Human Milk: Concentrations and Ratio of Enantiomers” (Metabolites, 2013).

Assay: Quantification of 1,8-cineole metabolites in human milk (SAFE, GC-MS, internal standard and matrix calibration) after oral intake of 100 mg 1,8-cineole
Assay type: in vivo
Conditions: for Absolute concentration in human milk: single determination
Source text: Human milk samples were provided voluntarily by breastfeeding mothers after intake of the non-prescription pharmaceutical Soledum® (Klosterfrau Healthcare Group, Cologne, Germany). Before the beginning of the study, the participants were informed verbally, as well as in written form, about the study procedure and purpose and they were told that withdrawing from the study was possible at any time without giving any reason. All volunteers gave written consent to the analysis of their milk samples and anonymous publication of the resulting data. The Ethical Committee of the Medical Faculty, University Erlangen-Nuremberg, approved the experimental procedures. Each participant was handed a copy of the Soldeum® package instructions and was advised to read it before capsule intake. They were also advised to withdraw from the study if any negative reactions such as medication allergies or interactions with other drugs they were taking were to be expected. Additionally, the volunteers were informed verbally about potential effects of the pharmaceutical preparation on breastfeeding, i.e. the risk of an altered milk flavour and rejection of the milk by the nursling. Accordingly, if this would happen, the mothers were recommended to feed their babies with stored human milk or formula milk products.
The milk donors were between the ages of 29 and 40 years (mean 34 years). During their participation in the study, their breast milk production had to be normal and in excess of their infants' needs, with no breast infections and no overall medical complaints present. Five participants were primiparous, three were multiparous and the breast milk samples were from 19 weeks to 19 months postpartum. For sampling, either electrical or mechanical breast pumps or manual expression techniques were applied, resulting in sample volumes between 10 and 100 mL. The samples were immediately subjected to sample preparation after a maximum storage time of five hours at 7 °C or were stored in a freezer at −20 °C for up to five days.
The participating volunteers were asked to ingest one Soledum® capsule, containing 100 mg 1,8-cineole, and to wait until they themselves or another person began to notice the eucalyptus-like odour on their breath. […] The donors were instructed to keep notes on the dates of capsule intake, first eucalyptus-like odour on their breath and exact sampling time. Unfortunately it was difficult for some mothers to detect the smell on their breath so they expressed the samples after some time without having noticed the smell, or reported having been unsure about the smell. […] Some of the donors repeated the whole experiment and some expressed more than one sample after the capsule intake, resulting in 14 samples in total, from 8 different mothers.
Extracts containing the volatile fraction of the human milk samples were prepared by Solvent Assisted Flavour Evaporation (SAFE) after addition of deuterated 1,8-cineole as internal standard (solution in dichloromethane), followed by 10 min of stirring, then another addition of dichloromethane (50% v/v), and 30 min of stirring. The resulting stable phase was distilled in the SAFE-apparatus at 50 °C and approximately 1x10^−4 mbar. The volatile fraction of the samples was frozen with liquid nitrogen. After thawing, it consisted of two phases, formed by the dichloromethane and by the water out of the milk. The water phase was extracted three times with dichloromethane, and the solvent phases were combined and dried over anhydrous Na2SO4. Finally the sample extracts were concentrated by microdistillation according to Bemelmans at 50 °C to a total volume of 50 to 200 μL.
For GC-MS analyses, an Agilent MSD quadrupole system (GC 7890A with MSD 5975C, Agilent Technologies, Waldbronn, Germany) coupled with a CIS 4C (cooled injection system) and an MPS 2 auto-sampler (Gerstel GmbH & Co. KG, Duisburg, Germany) were used. […]

- Concentration range in human milk (abstract/conclusions) (after oral 100 mg 1,8-cineole, rounded summary): 100 to 250 µg/kg
- Share of the metabolites on average (human milk, roughly estimated): about 70%
- Estimated maximum level in human milk (concentration calculated with the last calibration point, in parentheses) (sample A-1a (no odour)): < 1.37 µg/kg
- Absolute concentration in human milk (sample A-1a (no odour), oral 100 mg 1,8-cineole, values given with (<x) lie beyond calibration range, approximation): 0.65 µg/kg
- Absolute concentration in human milk (sample A-1b (odour yes), oral 100 mg 1,8-cineole, values given with (<x) are approximations): 138.10 µg/kg
- Absolute concentration in human milk (sample B-1 (odour yes), oral 100 mg 1,8-cineole, values given with (<x) are approximations): 176.30 µg/kg
- Absolute concentration in human milk (sample B-2a (no odour), oral 100 mg 1,8-cineole): 0.61 µg/kg
- Absolute concentration in human milk (sample B-2b (odour yes), oral 100 mg 1,8-cineole, values given with (<x) are approximations): 113.55 µg/kg
- Absolute concentration in human milk (sample B-2c (no odour), oral 100 mg 1,8-cineole): 29.25 µg/kg
- Absolute concentration in human milk (sample C (no odour; very weak odour not caused by 1,8-cineole), oral 100 mg 1,8-cineole, values given with (<x) are approximations): 7.68 µg/kg
- Absolute concentration in human milk (sample D-1 (no odour), oral 100 mg 1,8-cineole, values given with (<x) are approximations): 15.08 µg/kg
- Absolute concentration in human milk (sample D-2 (odour yes), oral 100 mg 1,8-cineole, values given with (<x) are approximations): 135.98 µg/kg
- Absolute concentration in human milk (sample E-1 (no odour), oral 100 mg 1,8-cineole, values given with (<x) are approximations): 2.02 µg/kg
- Absolute concentration in human milk (sample E-2 (odour yes), oral 100 mg 1,8-cineole, values given with (<x) are approximations): 233.31 µg/kg
- Absolute concentration in human milk (sample F (no odour), parent ingested two capsules, values given with (<x) are approximations): 3.16 µg/kg
- Absolute concentration in human milk (sample G (odour yes), oral 100 mg 1,8-cineole, values given with (<x) are approximations): 98.83 µg/kg
- Absolute concentration in human milk (sample H (odour yes), oral 100 mg 1,8-cineole, values given with (<x) are approximations): 206.09 µg/kg
- Concentration range in human milk samples (seven positive samples (eucalyptus-like odour), Figure 2): 99 to 233 µg/kg
SMILES: CC1(C)OC2(C)CCC1CC2O (stereo not drawn) [a2-hydroxy-1,8-cineole, α2-hydroxy-1,8-cineole]
